42 compounds from patent publication EP4741383A1, “COMPOUND AND USE THEREOF AS ANTI-CANCER DRUG” (Tyligand Bioscience (Shanghai) Limited, priority 2023, dated 2025) can be followed below.

Some results are limits rather than exact numbers.

One assay deals with T1, SHP2 enzyme (catalytic domain, amino acid sequence 224-528) (Homo sapiens, UniProt Q06124).
T1 construct: purchased GenScript
T1 sequence (Q06124 224-528): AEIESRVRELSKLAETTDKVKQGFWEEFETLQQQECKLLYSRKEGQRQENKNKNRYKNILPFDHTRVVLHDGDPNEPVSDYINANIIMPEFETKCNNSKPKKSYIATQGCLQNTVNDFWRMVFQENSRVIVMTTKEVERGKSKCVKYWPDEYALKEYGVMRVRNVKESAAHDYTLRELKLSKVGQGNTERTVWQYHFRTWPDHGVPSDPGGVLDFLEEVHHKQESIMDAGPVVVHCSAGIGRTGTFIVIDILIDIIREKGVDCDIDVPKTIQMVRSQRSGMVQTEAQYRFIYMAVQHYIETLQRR
In words: SHP2 enzyme inhibition assay (DiFMUP substrate, fluorescence). It counts as biochemical. The note with it: SHP2 catalytic domain, DiFMUP substrate, 30 min pre-incubation; read-out: S HP2 I C50. As to the method:
This experiment evaluates the inhibitory effect of the test compounds on SHP2 enzyme activity by detecting the reaction between the human recombinant protein SHP2 enzyme and the substrate.
The stock solutions of the reaction buffer components were thawed and mixed homogeneously at room temperature, to prepare the reaction buffer (55 mM HEPES pH = 7.2 (Sigma, Cat. No. #PHR1428), 100 mM NaCl (Beyotime, Cat. No. #ST374, 5 M solution), 0.5 mM EDTA (Beyotime, Cat. No. #ST066), 1 mM DL-Dithiothreitol (DTT) (Sigma, Cat. No. #D9779), 0.002% BSA (Solarbio, Cat. No. #A8010), 0.001% Brij35 (Brij® L23 solution (Brij35) (Sigma, Cat. No. #B4184)). The SHP2 enzyme (catalytic domain, amino acid sequence 224-528, expressed and purified by GenScript) was thawed slowly on ice. 1 µL of this solution (1.37 mg/mL) was added to 386 µL of the reaction buffer to dilute it to 100 nM. Then, 120 µL of the 100 nM SHP2 enzyme solution was added to 2880 µL of reaction buffer to prepare a 4 nM SHP2 enzyme working solution. The test compounds and the specific inhibitor of SHP2 (11a-1, used as a positive control, Zeng, L. et al., J. Med. Chem. 2014, 57, 6594-6609) were prepared as 10 mM DMSO solutions. 10 µL of the 10 mM compound solution was mixed with 20 µL of DMSO solution, and then serially diluted 3-fold, resulting in 10 concentrations. 1 µL of the serially diluted solution was mixed with 99 µL of reaction buffer to obtain a 10-fold diluted compound working solution.
A 96-well black half-area microplate (Greiner, catalog #675076) was used. 25 µL of 4 nM SHP2 enzyme working solution and 5 µL of 10x compound working solution were added to each well and incubated at room temperature for 30 minutes. 15 µL of DiFMUP substrate (Thermo Fisher Scientific, catalog #D6567) was added to 2985 µL of reaction buffer to prepare a 50 µM substrate working solution. After incubation of the compounds and SHP2 enzyme, 20 µL of the 50 µM substrate working solution was added to each well and incubated at room temperature for 5 minutes. The plate was then read on a multi-mode microplate reader (BioTek, Synergy H1) at 340 nm/450 nm fluorescence.
Data were analyzed using GraphPad Prism 9.0 software. A non-linear S-curve regression dose-response-inhibition equation was used to fit the data and generate the dose-response curve, from which the IC50 value was calculated. [formula]
With `O=C(Nc1ccc(-c2cc3cc(F)c(-c4nnn[nH]4)cc3n2C2CCC2)cc1)C(=O)Nc1ccc(N2CC3(CCC(O)CC3)C2)cc1` [Example 81], the IC50 was 70 nM.

As for `CC1(O)CCC2(CN(c3ccc(NC(=O)C(=O)Nc4ccc(-c5cc6cc(F)c(-c7nnn[nH]7)cc6n5C5(C)CCC5)cc4)cc3)C2)C1` (centres unmarked) [Example 80], the IC50 was determined as 36 nM.

Regarding `CC1(n2c(-c3ccc(NC(=O)C(=O)Nc4ccc(N5CCC(C6COC6)CC5)cc4)cc3)cc3cc(F)c(-c4nnn[nH]4)cc32)CCC1` [Example 21], the IC50 stood at 68 nM.

With `CC1(n2c(-c3ccc(NC(=O)C(=O)Nc4ccc(N5CC6(CCCOC6)C5)cc4)cc3)cc3cc(F)c(-c4nnn[nH]4)cc32)CCC1` [Example 56], the IC50 worked out at 74 nM.

`CC1(CO)CCN(c2ccc(NC(=O)C(=O)Nc3ccc(-c4cc5cc(F)c(-c6nnn[nH]6)cc5n4C4(C)CC4)cc3)cc2)CC1` [Example 42]: the IC50 was found to be 179 nM.

`CC(O)C1CCN(c2ccc(NC(=O)C(=O)Nc3ccc(-c4cc5cc(F)c(-c6nnn[nH]6)cc5n4C4CCC4)cc3)cc2)C1` (centres unmarked) [Example 15]: the IC50 was determined as 183 nM.

In the case of `N#Cc1nnc(-c2cc3c(cc2F)cc(-c2ccc(NC(=O)C(=O)Nc4ccc(N5CCC6(CCOC6)CC5)cc4)cc2)n3C2CCC2)[nH]1` [Example 127], the IC50 was 144 nM.

As to `O=C(Nc1ccc(-c2ccsc2)cc1)C(=O)Nc1ccc(-c2cc3ccc(-c4cnn[nH]4)cc3n2C2CCC2)cc1` [Example 121], the IC50 was over 10000 nM.

Regarding `O=C(Nc1ccc(-c2cc3cc(F)c(-c4nnn[nH]4)cc3n2C2CCC2)cc1)C(=O)Nc1ccc(N2CC3(COC3)C2)cc1` [Example 53], the IC50 was 64 nM.

Turning to `O=C(Nc1ccc(C2=CCOC2)cc1)C(=O)Nc1ccc(-c2cc3cc(F)c(-c4nnn[nH]4)cc3n2C2CCC2)cc1` [Example 51], the IC50 amounted to 57 nM.

For the compound `CC1(O)CCC2(CCN(c3ccc(NC(=O)C(=O)Nc4ccc(-c5cc6cc(F)c(-c7nnn[nH]7)cc6n5C5(C)CCC5)cc4)cc3)CC2)C1` (centres unmarked) [Example 105], the IC50 worked out at 86 nM.

Take `O=C(Nc1ccc(-c2cc3cc(F)c(-c4nnn[nH]4)cc3n2CC2CC2)cc1)C(=O)Nc1ccc(N2CCC3(CCOC3)CC2)cc1` [Example 72]: the IC50 stood at 46 nM.

On to `CC1CN(c2ccc(NC(=O)C(=O)Nc3ccc(-c4cc5cc(F)c(-c6nnn[nH]6)cc5n4C4CCC4)cc3)cc2)CC1CO` (centres unmarked) [Example 18], for which the IC50 was found to be 74 nM.

For `O=C(Nc1ccc(-c2ccsc2)cc1)C(=O)Nc1ccc(-c2cc3cc(O)c(-c4nnn[nH]4)cc3n2C2CCC2)cc1` [Example 3], the IC50 turned out to be 278 nM.

Regarding `CC1(CO)CCN(c2ccc(NC(=O)C(=O)Nc3ccc(-c4cc5cc(F)c(-c6nnn[nH]6)cc5n4C4(C)CCC4)cc3)cc2)CC1` [Example 41], the IC50 turned out to be 63 nM.

As for `O=C(Nc1ccc(-c2cc3cc(F)c(-c4nnn[nH]4)cc3n2C2CCC2)cc1)C(=O)Nc1ccc(N2CC3(CCC(O)C3)C2)cc1` (centres unmarked) [Example 79], the IC50 was 108 nM.

Regarding `CC(C)(O)C1CCN(c2ccc(NC(=O)C(=O)Nc3ccc(-c4cc5cc(F)c(-c6nnn[nH]6)cc5n4CC4CC4)cc3)cc2)CC1` [Example 37], the IC50 amounted to 44 nM.

Take `CC(C)(O)C1CCN(c2ccc(NC(=O)C(=O)Nc3ccc(-c4cc5cc(F)c(-c6nnn[nH]6)cc5n4C4(C)CC4)cc3)cc2)CC1` [Example 35]: the IC50 was found to be 174 nM.

Consider `CC(C)(O)C1CCN(c2ccc(NC(=O)C(=O)Nc3ccc(-c4cc5cc(F)c(-c6nnn[nH]6)cc5n4C4(C)CCC4)cc3)cc2)CC1` [Example 34], for which the IC50 came to 72 nM.

Turning to `O=C(Nc1ccc(C2=CCOCC2)cc1)C(=O)Nc1ccc(-c2cc3cc(F)c(-c4nnn[nH]4)cc3n2C2CCC2)cc1` [Example 52], the IC50 was 102 nM.

Turning to `CC1(O)CCC2(CC1)CN(c1ccc(NC(=O)C(=O)Nc3ccc(-c4cc5cc(F)c(-c6nnn[nH]6)cc5n4C4(C)CCC4)cc3)cc1)C2` [Example 84], the IC50 was determined as 60 nM.

Take `O=C(Nc1ccc(N2CCC3(CCOC3)CC2)cc1)C(=O)NC12CC(c3cc4cc(F)c(-c5nnn[nH]5)cc4n3C3CCC3)(C1)C2` [Example 65]: the IC50 was 198 nM.

`O=C(Nc1ccc(N2CCC3(CCOC3)CC2)cc1)C(=O)NC1CC=C(c2cc3cc(F)c(-c4nnn[nH]4)cc3n2C2CC2)CC1` (centres unmarked) [Example 64]: the IC50 was 88 nM.

`O=C(Nc1ccc(-c2cc3cc(F)c(-c4nnn[nH]4)cc3n2C2CCC2)cc1)C(=O)Nc1ccc(N2CC(CO)C2)cc1` [Example 8]: the IC50 was determined as 130 nM.

Take `CC(C)(O)C1CCC2(CC1)CN(c1ccc(NC(=O)C(=O)Nc3ccc(-c4cc5cc(F)c(-c6nnn[nH]6)cc5n4C4CCC4)cc3)cc1)C2` [Example 87]: the IC50 is 89 nM.

`CC1(n2c(-c3ccc(NC(=O)C(=O)Nc4ccc(N5CCC(CO)CC5)cc4)cc3)cc3cc(F)c(-c4nnn[nH]4)cc32)CCC1` [Example 24]: the IC50 was 271 nM.

For `O=C(Nc1ccc(-c2cc3cc(F)c(-c4nnn[nH]4)cc3n2C2CCC2)cc1)C(=O)Nc1ccc(N2CCC(F)(CO)CC2)cc1` [Example 45], the IC50 stood at 55 nM.

For `CC1(C)CN(c2ccc(NC(=O)C(=O)Nc3ccc(-c4cc5cc(F)c(-c6nnn[nH]6)cc5n4C4CCC4)cc3)cc2)CC1CO` (centres unmarked) [Example 19], the IC50 came out at 152 nM.

On to `CCC1CN(c2ccc(NC(=O)C(=O)Nc3ccc(-c4cc5cc(F)c(-c6nnn[nH]6)cc5n4C4CCC4)cc3)cc2)CCO1` (centres unmarked) [Example 48], for which the IC50 came to 50 nM.

As to `O=C(Nc1ccc(-c2cc3cc(F)c(-c4nnn[nH]4)cc3n2C2CCC2)cc1)C(=O)Nc1ccc(N2CCC3(CCCCO3)CC2)cc1` [Example 73], the IC50 was found to be 48 nM.

In the case of `O=C(Nc1ccc(N2CCC3(CCOC3)CC2)cc1)C(=O)NC1CCN(c2cc3cc(F)c(-c4nnn[nH]4)cc3n2C2CCC2)CC1` [Example 66], the IC50 came out at 291 nM.

Turning to `O=C(Nc1ccc(-c2cc3cc(F)c(-c4nnn[nH]4)c(F)c3n2C2CCC2)cc1)C(=O)Nc1ccc(N2CCC3(CCOC3)CC2)cc1` [Example 126], the IC50 came to 23 nM.

On to `O=C(Nc1ccc(-c2cc3cc(F)c(-c4nnn[nH]4)cc3n2C2CCC2)cc1)C(=O)Nc1ccc(N2CC3(C2)CC(O)(C(F)(F)F)C3)cc1` [Example 78], for which the IC50 came to 74 nM.

As for `CC(C)(O)CCC1CCN(c2ccc(NC(=O)C(=O)Nc3ccc(-c4cc5cc(F)c(-c6nnn[nH]6)cc5n4C4CCC4)cc3)cc2)CC1` [Example 28], the IC50 came to 92 nM.

As for `CC1(n2c(-c3ccc(NC(=O)C(=O)Nc4ccc(N5CCC6(CC(O)C6)C5)cc4)cc3)cc3cc(F)c(-c4nnn[nH]4)cc32)CCC1` (centres unmarked) [Example 90], the IC50 worked out at 139 nM.

Consider `CCC1(CO)CCN(c2ccc(NC(=O)C(=O)Nc3ccc(-c4cc5cc(F)c(-c6nnn[nH]6)cc5n4C4CCC4)cc3)cc2)CC1` [Example 43], for which the IC50 amounted to 52 nM.

As to `CC1(C#N)CCN(c2ccc(NC(=O)C(=O)Nc3ccc(-c4cc5cc(F)c(-c6nnn[nH]6)cc5n4C4CCC4)cc3)cc2)C1` (centres unmarked) [Example 11], the IC50 is 30 nM.

For the compound `CC(C)(O)C1CCC2(CC1)CN(c1ccc(NC(=O)C(=O)Nc3ccc(-c4cc5cc(F)c(-c6nnn[nH]6)cc5n4C4(C)CCC4)cc3)cc1)C2` [Example 88], the IC50 is 148 nM.

For `O=C(Nc1ccc(-c2cc3cc(F)c(-c4nnn[nH]4)cc3n2C2CCC2)cc1)C(=O)Nc1ccc(N2CCC3(CCCO3)C2)cc1` (centres unmarked) [Example 60], the IC50 came out at 64 nM.

With `O=C(Nc1ccc(-c2cc3cc(F)c(-c4nnn[nH]4)cc3n2C2CCC2)cc1)C(=O)Nc1ccc(N2CC3(CCC(CO)CC3)C2)cc1` [Example 85], the IC50 is 47 nM.

Consider `O=C(Nc1ccc(-c2cc3cc(F)c(-c4nnn[nH]4)cc3n2C2CCC2)cc1)C(=O)Nc1ccc(N2CC3CC2CO3)cc1` (centres unmarked) [Example 49], for which the IC50 came to 133 nM.

In the case of `CC1(O)CCC2(CCN(c3ccc(NC(=O)C(=O)Nc4ccc(-c5cc6cc(F)c(-c7nnn[nH]7)cc6n5C5CCC5)cc4)cc3)C2)C1` (centres unmarked) [Example 93], the IC50 stood at 56 nM.

Staying with this assay, now noted: relative to 11a-1, IC50 = 0.108 µM.
As for `CC1(O)CCC2(CN(c3ccc(NC(=O)C(=O)Nc4ccc(-c5cc6cc(F)c(-c7nnn[nH]7)cc6n5C5(C)CCC5)cc4)cc3)C2)C1` (centres unmarked) [Example 80], the “SHP2 IC50 times lower than control compound 11a-1” value is on record as 3-4 times.

Regarding `CC1(C#N)CCN(c2ccc(NC(=O)C(=O)Nc3ccc(-c4cc5cc(F)c(-c6nnn[nH]6)cc5n4C4CCC4)cc3)cc2)C1` (centres unmarked) [Example 11], the “SHP2 IC50 times lower than control compound 11a-1” value is 3-4 times.
